Where two headings read alike, the source gives them in different places.
Biological target: T1, horseradish peroxidase (HRP) tagged delF508-CFTR (Homo sapiens, UniProt P13569, DEL508-508)
T1 construct: expressed in transfected cells
Experiment: Measurement of delF508-CFTR-HRP surface expression in CFBE41o- cells;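 as to DelF508-CFTR-HRP Amax %: percent efficacy relative to reference corrector lumacaftor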
Assay type: cell-based
Conditions: for Emax: read-out: DelF508-CFTR-HRP Amax %
In short: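 Surface-trafficked delF508-CFTR detected via extracellular HRP tag, read as luminescence from a membrane-impermeant substrate in CFBE41o- cells. Cells pre-induced 48h with 500 ng/mL doxycycline, then exposed 24h at 37° C to a 10-point, 3-fold dilution series from 10 μM (DMSO ≤0.5%). Triplicate dose-responses fitted logistically for EC50 after per-plate normalization; fold change versus reference compound.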

[1] = delF508-CFTR-HRP surface expression, CFBE41o- cells
[2] = delF508-CFTR-HRP surface expression, CFBE41o- cells, read-out: DelF508-CFTR-HRP EC50
[3] = CFBE41o- cells, mean of at least two replicates, read-out: DelF508-CFTR-HRP EC50
[4] = CFBE41o- cells, surface expression Amax

T1 sequence (P13569 with tags, fused parts or gaps DEL508-508): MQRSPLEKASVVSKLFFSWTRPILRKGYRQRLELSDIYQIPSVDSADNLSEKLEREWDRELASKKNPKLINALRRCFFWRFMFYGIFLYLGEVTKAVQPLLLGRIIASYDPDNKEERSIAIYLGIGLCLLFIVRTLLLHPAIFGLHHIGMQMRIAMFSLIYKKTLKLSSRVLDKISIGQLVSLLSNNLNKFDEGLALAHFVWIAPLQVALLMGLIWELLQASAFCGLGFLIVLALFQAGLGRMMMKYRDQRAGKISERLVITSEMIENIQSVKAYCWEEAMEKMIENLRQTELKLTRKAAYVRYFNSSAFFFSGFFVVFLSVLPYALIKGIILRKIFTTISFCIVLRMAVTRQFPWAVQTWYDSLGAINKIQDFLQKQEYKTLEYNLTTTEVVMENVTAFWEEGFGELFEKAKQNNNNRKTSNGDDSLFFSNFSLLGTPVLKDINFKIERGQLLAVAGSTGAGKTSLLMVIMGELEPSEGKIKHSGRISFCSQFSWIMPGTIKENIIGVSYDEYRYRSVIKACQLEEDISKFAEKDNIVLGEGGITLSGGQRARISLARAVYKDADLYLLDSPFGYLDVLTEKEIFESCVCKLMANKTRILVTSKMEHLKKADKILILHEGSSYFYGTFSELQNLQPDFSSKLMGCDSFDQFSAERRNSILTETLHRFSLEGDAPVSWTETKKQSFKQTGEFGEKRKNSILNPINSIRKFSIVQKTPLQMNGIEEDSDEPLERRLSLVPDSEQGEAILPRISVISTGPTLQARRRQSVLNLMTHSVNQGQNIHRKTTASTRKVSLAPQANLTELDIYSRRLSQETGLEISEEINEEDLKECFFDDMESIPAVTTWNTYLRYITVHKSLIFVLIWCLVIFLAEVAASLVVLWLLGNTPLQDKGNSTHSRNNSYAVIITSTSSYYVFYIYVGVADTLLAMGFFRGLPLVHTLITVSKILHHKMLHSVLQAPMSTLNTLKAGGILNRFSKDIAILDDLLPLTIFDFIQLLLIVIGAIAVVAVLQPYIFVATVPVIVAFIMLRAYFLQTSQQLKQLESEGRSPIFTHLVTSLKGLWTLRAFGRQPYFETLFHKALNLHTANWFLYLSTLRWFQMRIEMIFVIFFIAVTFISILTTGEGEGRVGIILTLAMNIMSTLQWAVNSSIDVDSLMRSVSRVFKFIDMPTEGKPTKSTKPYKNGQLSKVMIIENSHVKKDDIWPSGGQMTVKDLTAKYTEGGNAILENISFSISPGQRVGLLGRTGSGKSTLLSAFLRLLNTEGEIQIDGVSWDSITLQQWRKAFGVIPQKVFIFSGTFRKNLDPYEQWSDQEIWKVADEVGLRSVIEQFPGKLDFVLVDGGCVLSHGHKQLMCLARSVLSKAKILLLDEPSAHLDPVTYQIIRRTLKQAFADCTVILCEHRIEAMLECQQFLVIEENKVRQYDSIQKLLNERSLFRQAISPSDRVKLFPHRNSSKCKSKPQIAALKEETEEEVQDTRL

Compound	Emax [1] [%]	EC50 [2] [nM]	EC50 [3] [nM]	Emax [4] [%]	EC50 [nM]
Nc1cccc(S(=O)(=O)Nc2ccc(Cl)c(-c3ccccc3C(F)F)n2)n1 [Example 65, 6-amino-N-(5-chloro-6-(2-(difluoromethyl)phenyl)pyridin-2-yl)pyridine-2-sulfonamide]	220	1540	–	–	–
CC(C)COc1ccccc1-c1nc(NS(=O)(=O)c2cccc(N3CCC[C@@](C)(C(=O)O)C3)n2)ccc1Cl [Example 422, (R)-1-(6-(N-(5-chloro-6-(2-isobutoxyphenyl)pyridin-2-yl)sulfamoyl)pyridin-2-yl)-3-methylpiperidine-3-carboxylic Acid]	–	–	1380	905	–
CCCOc1ccccc1-c1nc(NS(=O)(=O)c2cccc(N3CCC[C@@](C)(C(=O)O)C3)n2)ccc1C(F)(F)F [Example 329, (R)-3-methyl-1-(6-(N-(6-(2-propoxyphenyl)-5-(trifluoromethyl)pyridin-2-yl)sulfamoyl)pyridin-2-yl)piperidine-3-carboxylic Acid]	–	930	–	–	–
Cc1ccc(C#N)cc1-c1nc(NS(=O)(=O)c2ccnc(N)c2)ccc1Cl [Example 85, 2-amino-N-(5-chloro-6-(5-cyano-2-methylphenyl)pyridin-2-yl)pyridine-4-sulfonamide]	110	3680	–	–	–
[2H]C([2H])([2H])c1ccccc1-c1nc(NS(=O)(=O)c2ccnc(N)c2)ccc1Cl [Example 26, 2-amino-N-(5-chloro-6-(2-(methyl-d3)phenyl)pyridin-2-yl)pyridine-4-sulfonamide]	450	2200	–	–	–
Cc1ccccc1-c1nc(NS(=O)(=O)c2cccc(N3CC(C(=O)O)C3)n2)ccc1C(F)(F)F [Example 330, 1-(6-(N-(6-(o-tolyl)-5-(trifluoromethyl)pyridin-2-yl)sulfamoyl)pyridin-2-yl)azetidine-3-carboxylic Acid]	9.1	2300	–	–	–
COc1ccc(Cl)c(-c2nc(NS(=O)(=O)c3cccc(N4CCC[C@@H](C(=O)O)C4)n3)ccc2C(F)(F)F)c1 [Example 449, (R)-1-(6-(N-(6-(2-chloro-5-methoxyphenyl)-5-(trifluoromethyl)pyridin-2-yl)sulfamoyl)pyridin-2-yl)piperidine-3-carboxylic Acid]	–	–	2370	–	–
Cc1ccccc1-c1nc(NS(=O)(=O)c2cccc(N3[C@@H]4CC[C@H]3[C@@H](C(=O)O)C4)n2)ccc1C(F)(F)F [Example 462, (1S,2S,4R)-7-(6-(N-(6-(o-tolyl)-5-(trifluoromethyl)pyridin-2-yl)sulfamoyl)pyridin-2-yl)-7-azabicyclo[2.2.1]heptane-2-carboxylic Acid]	–	–	–	108	2930
CCCC1(C(=O)O)CCCN(c2cccc(S(=O)(=O)Nc3ccc(Cl)c(-c4ccccc4C)n3)n2)C1 (stereo not drawn) [Example 456, 1-(6-(N-(5-chloro-6-(o-tolyl)pyridin-2-yl)sulfamoyl)pyridin-2-yl)-3-propylpiperidine-3-carboxylic Acid]	–	–	1360	465	–
CCOC(=O)C1(C)CCN(c2cccc(S(=O)(=O)Nc3ccc(Cl)c(-c4cccc(F)c4C)n3)n2)CC1 [Example 252, ethyl 1-(6-(N-(5-chloro-6-(3-fluoro-2-methylphenyl)pyridin-2-yl)sulfamoyl)pyridin-2-yl)-4-methylpiperidine-4-carboxylate]	602	2470	–	–	–
Cc1cc(C)c(-c2nc(NS(=O)(=O)c3cccc(N)n3)ccc2Cl)c(C)c1 [Example 32, 6-amino-N-(5-chloro-6-mesitylpyridin-2-yl)pyridine-2-sulfonamide]	412	1640	–	–	–
CC(C)COc1ccccc1-c1nc(NS(=O)(=O)c2cccc(N3CCCC(C)(C(=O)O)C3)n2)ccc1C(F)(F)F (stereo not drawn) [Example 386, 1-(6-(N-(6-(2-isobutoxyphenyl)-5-(trifluoromethyl)pyridin-2-yl)sulfamoyl)pyridin-2-yl)-3-methylpiperidine-3-carboxylic Acid]	–	–	605	–	–
Cc1cccc(C)c1-c1nc(NS(=O)(=O)c2cccc(N3CCC[C@@](C)(C(=O)O)C3)n2)ccc1C(F)(F)F [Example 465, (R)-1-(6-(N-(6-(2,6-dimethylphenyl)-5-(trifluoromethyl)pyridin-2-yl)sulfamoyl)pyridin-2-yl)-3-methylpiperidine-3-carboxylic Acid]	–	–	1730	–	–

The next lines start with results.

Emax [1] [%]	EC50 [2] [nM]	EC50 [3] [nM]	Emax [4] [%]	Compound	EC50 [nM]
89.2	3030	–	–	Cc1ccccc1-c1nc(NS(=O)(=O)c2cccc(N3CCN[C@@H](C(=O)O)C3)n2)ccc1C(F)(F)F [Example 341, (2R)-4-(6-{[6-(2-methylphenyl)-5-(trifluoromethyl)pyridin-2-yl]sulfamoyl}pyridin-2-yl)piperazine-2-carboxylic Acid]	–
–	–	2360	332	Cc1ccccc1-c1nc(NS(=O)(=O)c2cccc(NC3CCC(C(=O)O)C3)n2)ccc1C(F)(F)F (mixture of isomers) [Example 459, 3-((6-(N-(6-(o-tolyl)-5-(trifluoromethyl)pyridin-2-yl)sulfamoyl)pyridin-2-yl)amino)cyclopentanecarboxylic Acid]	–
71.3	3140	–	–	Cc1ccccc1-c1nc(NS(=O)(=O)c2cccc(N3CCN[C@H](C(=O)O)C3)n2)ccc1C(F)(F)F [Example 335, (2S)-4-(6-{[6-(2-methylphenyl)-5-(trifluoromethyl)pyridin-2-yl]sulfamoyl}pyridin-2-yl)piperazine-2-carboxylic Acid]	–
266	1760	–	–	Cc1ccccc1-c1nc(NS(=O)(=O)c2cccc(N3CCC(C)(C(=O)O)C3)n2)ccc1C(F)(F)F (stereo not drawn) [Example 336, 3-methyl-1-(6-{[6-(2-methylphenyl)-5-(trifluoromethyl)pyridin-2-yl]sulfamoyl}pyridin-2-yl)pyrrolidine-3-carboxylic Acid]	–
92.9	3780	–	–	Cc1ccccc1-c1nc(NS(=O)(=O)c2cccnc2N)ccc1Cl [Example 88, 2-amino-N-(5-chloro-6-(o-tolyl)pyridin-2-yl)pyridine-3-sulfonamide]	–
185	4670	–	–	Cc1ccc(C#N)cc1-c1nc(NS(=O)(=O)c2ccnc(N3CC(C)(O)C3)c2)ccc1C(F)(F)F [Example 317, N-(6-(5-cyano-2-methylphenyl)-5-(trifluoromethyl)pyridin-2-yl)-2-(3-hydroxy-3-methylazetidin-1-yl)pyridine-4-sulfonamide]	–
–	–	530	503	C[C@@]1(C(=O)O)CCCN(c2cccc(S(=O)(=O)Nc3ccc(Cl)c(-c4ccccc4C4CCC4)n3)n2)C1 [Example 391, (R)-1-(6-(N-(5-chloro-6-(2-cyclobutylphenyl)pyridin-2-yl)sulfamoyl)pyridin-2-yl)-3-methylpiperidine-3-carboxylic Acid]	–
–	–	2480	235	C[C@@]1(C(=O)O)CCCN(c2cccc(S(=O)(=O)Nc3cccc(-c4ccccc4C4CC4)n3)n2)C1 [Example 405, (R)-1-(6-(N-(6-(2-cyclopropylphenyl)pyridin-2-yl)sulfamoyl)pyridin-2-yl)-3-methylpiperidine-3-carboxylic Acid]	–
158	2840	–	–	Cc1ccccc1-c1nc(NS(=O)(=O)c2cccc(N)n2)ccc1C [Example 75, 6-amino-N-(5-methyl-6-(o-tolyl)pyridin-2-yl)pyridine-2-sulfonamide]	–
493	1360	–	–	Nc1cccc(S(=O)(=O)Nc2ccc(Cl)c(-c3cc(F)ccc3C3CC3)n2)n1 [Example 21, 6-amino-N-(5-chloro-6-(2-cyclopropyl-5-fluorophenyl)pyridin-2-yl)pyridine-2-sulfonamide]	–

Reference: US11066369B2, “N-(pyridin-2-yl)pyridine-sulfonamide derivatives and their use in the treatment of disease” (Novartis AG, priority 2016, dated 2021)
